From patent US7186862B2, “Microbicidal agents on the basis of biphenylbenzamide derivatives” (Bayer CropScience AG, priority 2002, dated 2007) come the findings set out here.

Data set [1] in a line: logP determination by HPLC on reversed-phase column (EEC Directive 79/831). In kind it is physicochemical. The following applies: reversed-phase HPLC column (C18), pH 2.3, reversed-phase C18, 43° C., 0.1% aqueous phosphoric acid/acetonitrile gradient. The protocol:
The logP values given in the tables and preparation examples above are determined in accordance with EEC Directive 79/831 Annex V.48 by HPLC (High Performance Liquid Chromatography) on a reversed-phase column (C18). Temperature: 43° C. The determination is carried out in the acidic range at pH 2.3 using the mobile phases 0.1% aqueous phosphoric acid and acetonitrile; linear gradient from 10% acetonitrile to 90% acetonitrile. Calibration is carried out using unbranched […] (of 3 to 16 carbon atoms) with known logP values (determination of the logP values by the retention time using linear interpolation between two successive alkanones).

A further data set deals with Podosphaera leucotricha. As to the kind of experiment: Podosphaera test (apple)/protective. In kind it is in vivo. The following applies: 240 h, application rate 100 g/ha, apple plants, protective spray, evaluation 10 days after inoculation, 100% = no infection, read-out: Efficacy in %. The protocol: (§1) [table] To produce a suitable preparation of active compound, 1 part by weight of active compound is mixed with the stated amounts of solvent and emulsifier, and the concentrate is diluted with water to the desired concentration. To test for protective activity, young plants are sprayed with the preparation of active compound at the stated application rate. After the spray coating has dried on, the plants are inoculated with an aqueous spore suspension of the apple mildew pathogen Podosphaera leucotricha. The plants are then placed in a greenhouse at about 23° C. and a relative atmospheric humidity of about 70%. Evaluation is carried out 10 days after the inoculation. 0% means an efficacy which corresponds to that of the control, whereas an efficacy of 100% means that no infection is observed.

For another data set, the system named is Sphaerotheca fuliginea. As to the kind of experiment: Sphaerotheca test (cucumber)/protective. The following applies: Podosphaera fuliginea, 168 h; application rate 100 g/ha; cucumber plants, protective spray; evaluation 7 days after inoculation; 100% = no infection; read-out: Efficacy in %. In kind it is in vivo. The protocol: as §1, with “of Sphaerotheca fuliginea.” for “of the apple mildew pathogen Podosphaera leucotricha.”, “out 7” for “out 10”

In a further data set the test system is Venturia inaequalis. As to the kind of experiment: Venturia test (apple)/protective. In kind it is in vivo. The following applies: 240 h, application rate 100 g/ha, apple plants, protective spray, evaluation 10 days after inoculation, 100% = no infection, read-out: Efficacy in %. As to the method: as §1, with “conidia” for “spore”, “scab” for “mildew”, “Venturia inaequalis and then remain in an incubation cabin at about 20° C. and 100% relative atmospheric humidity for 1 day.” for “Podosphaera leucotricha.”, “21°” for “23°”, “90%.” for “70%.”

A further data set has as its system Pyrenophora teres. As to the kind of experiment: Pyrenophora teres test (barley)/protective. The format is in vivo. To be noted: application rate 500 g/ha; barley plants, protective spray. The protocol: [table] To produce a suitable preparation of active compound, 1 part by weight of active compound is mixed with the stated amounts of solvent and emulsifier, and the concentrate is diluted with water to the desired concentration. To test for protective activity, young plants are sprayed with the preparation of active compound at the stated application rate. After the spray coating has dried on, the plants are sprayed with a conidia suspension of Pyrenophora teres. The plants remain in an incubation cabin at 20° C. and 100% relative atmospheric humidity for 48 hours. The plants are then placed in a greenhouse at about 20° C. and a relative atmospheric humidity of about 80%.

In a further data set the test system is Alternaria solani. As to the kind of experiment: Alternaria test (tomato)/protective. The format is in vivo. The following applies: application rate 750 g/ha; tomato plants, protective spray, inoculation 1 day after treatment; evaluation 7 days after inoculation; 100% = no infection. The protocol: [table] To produce a suitable p reparation of active compound, 1 part by weight of active compound is mixed with the stated amounts of solvent and emulsifier, and the concentrate is diluted with water to the desired concentration. To test for protective activity, young tomato plants are sprayed with the preparation of active compound at the stated application rate. 1 day after the treatment, the plants are inoculated with a spore suspension of Alternaria solani and are then kept at 100% relative atmospheric humidity and 20° C. for 24 h. The plants are then kept at 96% relative atmospheric humidity and a temperature of 20° C. Evaluation is carried out 7 days after the inoculation. 0% means an efficacy which corresponds to that of the control, whereas an efficacy of 100% means that no infection is observed.

As a reminder, the chromatographic logP is lipophilicity estimated from chromatographic retention. A low value points to lower lipophilicity. As for `O=C(Nc1ccccc1-c1ccc(Cl)c(Cl)c1)c1ccccc1C(F)(F)F` [Compound 4], in data set [1], the chromatographic logP was 4.13. Also, the pest or weed control at 100 g/ha with Podosphaera leucotricha, in the data set on Sphaerotheca fuliginea and in the data set with Venturia inaequalis was 100% throughout. In addition, the Efficacy in % in the data set with Pyrenophora teres is listed as 100%.

Take `O=C(Nc1ccccc1-c1cccc(Cl)c1)c1ccccc1C(F)(F)F` [Compound 7]: the chromatographic logP in data set [1] amounted to 3.86. The pest or weed control at 100 g/ha in the data set on Podosphaera leucotricha, in the data set on Sphaerotheca fuliginea and in the data set on Venturia inaequalis was 100% in each case. The Efficacy in % with Pyrenophora teres stood at 90%; in the data set on Alternaria solani it was 94%.

`O=C(Nc1ccccc1-c1ccc(Br)cc1)c1ccccc1Cl` [Compound 10] yielded a chromatographic logP in data set [1] of 3.89. Further, the Efficacy in % in the data set on Alternaria solani was 92%.

`O=C(Nc1ccccc1-c1cccc(Cl)c1)c1ccccc1Br` [Compound 18] displayed a chromatographic logP in data set [1] of 3.78. The molecule also yielded an Efficacy in % with Alternaria solani of 100%.

In data set [1], `O=C(Nc1ccccc1-c1ccc(F)c(F)c1)c1ccccc1C(F)(F)F` [Compound 33] registered a chromatographic logP of 3.55. The pest or weed control at 100 g/ha stood at 100% in the data set with Podosphaera leucotricha, 82% with Sphaerotheca fuliginea and 100% with Venturia inaequalis. This molecule also registered an Efficacy in % in the data set on Alternaria solani of 94%.
